Reference: ChEMBL document CHEMBL1240490, “Novel carbamates as orally active acetylcholinesterase inhibitors found to improve scopolamine-induced cognition impairment: pharmacophore-based virtual screening, synthesis, and pharmacology” (J Med Chem, 2010)
Active and inactive are the calls of the source. No cut-off for these calls is given here.

Experiments:
Acetylcholinesterase [1] = target: T1, Acetylcholinesterase (Homo sapiens, UniProt P22303)
Description: (§1) Inhibition of human AChE by Ellmans test

Acetylcholinesterase [2] = target: T1, Acetylcholinesterase; remark: listed apart in the source
Description: as §1

Caenorhabditis elegans = experiment: Inhibition of ACh release in Caenorhabditis elegans N2 N2; type: functional, organism-based

T1 sequence (P22303 whole entry): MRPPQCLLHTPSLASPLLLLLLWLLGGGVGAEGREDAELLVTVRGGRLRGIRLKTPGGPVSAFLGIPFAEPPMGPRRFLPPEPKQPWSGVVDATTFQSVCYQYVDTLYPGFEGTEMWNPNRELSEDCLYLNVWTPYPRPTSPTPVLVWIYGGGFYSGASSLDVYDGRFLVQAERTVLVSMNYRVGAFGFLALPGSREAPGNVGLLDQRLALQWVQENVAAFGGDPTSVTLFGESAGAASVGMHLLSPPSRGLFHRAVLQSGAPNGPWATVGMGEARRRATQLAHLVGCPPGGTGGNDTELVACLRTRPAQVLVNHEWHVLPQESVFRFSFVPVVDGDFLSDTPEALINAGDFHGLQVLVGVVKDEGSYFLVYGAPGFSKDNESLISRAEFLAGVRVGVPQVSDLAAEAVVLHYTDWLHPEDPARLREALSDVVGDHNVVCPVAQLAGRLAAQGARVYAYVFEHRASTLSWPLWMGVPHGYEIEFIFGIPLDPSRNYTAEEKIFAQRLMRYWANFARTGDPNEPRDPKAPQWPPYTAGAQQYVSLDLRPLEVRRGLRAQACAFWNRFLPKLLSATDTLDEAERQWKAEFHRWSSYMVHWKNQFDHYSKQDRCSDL

Row | SMILES | logIC50 (Acetylcholinesterase [1]) | IC50 (Acetylcholinesterase [2]) | inhibition (Caenorhabditis elegans)
1 | CC(C)c1ccc(NC(=O)Oc2ccc3c(c2)[C@]2(C)CCO[C@@H]2N3C)cc1 | 3.59 |  | 
2 | CN1CC[C@]2(C)c3cc(OC(=O)Nc4ccccc4)ccc3N(C)C12 (stereo partly drawn) | 3.54 |  | 
3 | Cc1ccccc1NC(=O)Oc1ccc2c(c1)[C@]1(C)CCN(CCc3ccccc3)C1N2C (stereo partly drawn) | 2.74 |  | 
4 | Cc1ccccc1NC(=O)Oc1ccc2c(c1)[C@]1(C)CCN(C)[C@@H]1N2 | 1.6 | 40 nM | 
5 | Cc1cccc(NC(=O)Oc2ccc3c(c2)[C@]2(C)CCN(C)[C@@H]2N3C)c1C | 1.36 |  | 
6 | CC(C)c1ccc(NC(=O)Oc2ccc3c(c2)[C@]2(C)CCN(C)C2N3)cc1 (stereo partly drawn) | 3.31 |  | 
7 | Cc1ccc(NC(=O)Oc2ccc3c(c2)[C@]2(C)CCN(C)[C@@H]2N3C)c(C)c1 | 1.15 |  | 
8 | CC(C)c1ccccc1NC(=O)Oc1ccc2c(c1)[C@]1(C)CCN(C)[C@@H]1N2C | 1.18 |  | 
9 | C[C@H](c1cccc(OC(=O)N(C)C)c1)N1CCCCC1 |  | 32 nM | 
10 | CNC(=O)Oc1ccc2c(c1)OC[C@@H]1CCN(C)[C@H]21 |  | 30 nM | 
11 | CCOC(=O)C1=CN(C)c2cccc(OC(=O)N(C)C)c2C1 |  | 7 nM | 
12 | Cc1ccc(NC(=O)Oc2ccc3c(c2)[C@]2(C)CCN(C)[C@@H]2N3C)cc1C | 1.49 |  | 
13 | CNC(=O)Oc1ccc2c(c1)[C@@]1(C)CCN(C)C1N2Cc1ccccc1 (stereo partly drawn) | 3.45 |  | 
14 | Cc1cc(C)c(NC(=O)Oc2ccc3c(c2)[C@]2(C)CCN(C)[C@@H]2N3C)c(C)c1 | 3.11 |  | 
15 | O=C(Nc1ccccc1Cl)Oc1ccc2c(c1)CCCN2Cc1ccccc1 |  | 3310 nM | 
16 | CN(C(=O)Oc1ccc2c(c1)[C@]1(C)CCN(C)[C@@H]1N2C)c1ccccc1 | 2.46 | 285 nM | 
17 | CN1CC[C@@]2(C)c3cc(OC(=O)Nc4ccccc4)ccc3N(C=O)[C@@H]12 | 2.52 | 330 nM | 
18 | Cc1ccccc1NC(=O)Oc1ccc2c(c1)[C@]1(C)CCNC1N2C (stereo partly drawn) | 1.23 |  | 
19 | CC(C)c1ccc(NC(=O)Oc2ccc3c(c2)C2(C)COC(O3)O2)cc1 (stereo not drawn) | 3.63 | 4300 nM | 
20 | CNC(=O)Oc1ccc2c(c1)[C@]1(C)CCO[C@@H]1N2C | 1.43 |  | 

Row | SMILES | logIC50 (Acetylcholinesterase [1]) | IC50 (Acetylcholinesterase [2]) | inhibition (Caenorhabditis elegans)
21 | CCNC(=O)Oc1ccc2c(c1)[C@]1(C)CCN(C)[C@@H]1N2C | 1.97 |  | 
22 | Cc1ccccc1NC(=O)Oc1ccc2c(c1)[C@]1(C)CCO[C@@H]1N2C | 1.11 |  | 
23 | CNC(=O)Oc1ccc2c(c1)[C@]1(C)CCN(C)[C@@H]1N2Cc1ccccc1 | 2.21 | 161 nM | 
24 | CNC(=O)Oc1ccc2c(c1)[C@]1(C)CCNC1N2 (stereo partly drawn) | 3.17 |  | 
25 | Cc1ccccc1NC(=O)Oc1ccc2c(c1)[C@]1(C)CCN(C)[C@@H]1N2C [TOLSERINE] | 1 | 40 nM | 
26 | CCNC(=O)Oc1ccc2c(c1)[C@]1(C)CCO[C@@H]1N2C | 1.91 |  | 
27 | CNC(=O)Oc1ccc2c(c1)[C@]1(C)CCN(Cc3ccccc3)[C@@H]1N2Cc1ccccc1 | 3.55 | 3560 nM | 
28 | CNC(=O)Oc1ccc2c(c1)[C@]1(C)CCN(Cc3ccccc3)C1N2Cc1ccccc1 (stereo partly drawn) | 3.04 |  | 
29 | CNC(=O)Oc1ccc2c(c1)CC[C@@H]1CCN(C)[C@H]21 |  | 17.3 nM | 
30 | Cc1cccc(C)c1NC(=O)Oc1ccc2c(c1)[C@]1(C)CCN(C)[C@@H]1N2C | 2.89 |  | 
31 | CNC(=O)Oc1ccc2c(c1)[C@]1(C)CCN(C)[C@@H]1N2 | 1.75 | 56.7 nM | 
32 | CN(C)Cc1cc2c(cc1OC(=O)Nc1ccccc1)[C@]1(C)CCN(C)[C@@H]1N2C | 2.89 | 780 nM | 
33 | Cc1ccccc1NC(=O)Oc1ccc2c(c1)C1(C)COC(C1)O2 (stereo not drawn) | 1.75 |  | 
34 | Cc1cc2c(cc1OC(=O)Nc1ccccc1)[C@]1(C)CCN(C)[C@@H]1N2C | 2.41 |  | 
35 | CNC(=O)Oc1ccc2c(c1)c(C)cn2Nc1ccncc1F |  | 100 nM | 
36 | C[C@]12CCNC1Nc1ccc(OC(=O)Nc3ccccc3)cc12 (stereo partly drawn) | 2.36 |  | 
37 | CC(C)c1ccc(NC(=O)Oc2ccc3c(c2)[C@]2(C)CCNC2N3C)cc1 (stereo partly drawn) | 2.51 |  | 
38 | CNC(=O)Oc1ccc2c(c1)[C@]1(C)CCN(C)[C@@H]1N2C=O | 3.4 | 2500 nM | 
39 | CCc1cccc(CC)c1NC(=O)Oc1ccc2c(c1)[C@]1(C)CCN(C)[C@@H]1N2C | 2.84 | 690 nM | 
40 | CNC(=O)Oc1ccc2c(c1)[C@@]1(C)CCN(C)C1N2 (stereo partly drawn) | 1.75 |  | 

Row | SMILES | logIC50 (Acetylcholinesterase [1]) | IC50 (Acetylcholinesterase [2]) | inhibition (Caenorhabditis elegans)
41 | Cc1ccc(NC(=O)Oc2ccc3c(c2)[C@]2(C)CCN(C)[C@@H]2N3C)cc1 | 2.15 |  | 
42 | CCc1ccccc1NC(=O)Oc1ccc2c(c1)[C@]1(C)CCN(C)[C@@H]1N2C | 1 |  | 
43 | CCNC(=O)Oc1ccc2c(c1)C1(C)COC(O2)O1 (stereo not drawn) | 2.59 | 387 nM | 
44 | C[C@@]12CCN(Cc3ccccc3)[C@@H]1N(Cc1ccccc1)c1ccc(OC(=O)Nc3ccccc3)cc12 | 4.61 | 41100 nM | 
45 | CNC(=O)Oc1ccc2c(c1)SC[C@@H]1CCN(C)[C@H]21 |  | 8.11 nM | 
46 | CC(C)c1ccc(NC(=O)Oc2ccc3c(c2)[C@]2(C)CCN(C)C2N3Cc2ccccc2)cc1 (stereo partly drawn) | 4.11 |  | 
47 | CCCCCCNC(=O)Oc1ccc2c(c1)CCCN2Cc1ccccc1 |  |  | Active
48 | Cc1ccccc1NC(=O)Oc1ccc2c(c1)[C@]1(C)CCN(Cc3ccccc3)C1N2Cc1ccccc1 (stereo partly drawn) | 3.25 |  | 
49 | CCNC(=O)Oc1ccc2c(c1)C1(C)COC(C1)O2 (stereo not drawn) | 2.56 |  | 
50 | Cc1ccccc1NC(=O)Oc1ccc2c(c1)[C@]1(C)CCN[C@@H]1N2 | 2.92 | 830 nM | 
51 | CN1CC[C@@]2(C)c3cc(OC(=O)N4CCc5ccccc5C4)ccc3N(C)[C@@H]12 [QUILOSTIGMINE] |  | 148 nM | 
52 | CN1CC[C@@]2(C)c3cc(OC(=O)Nc4ccccc4)ccc3N(Cc3ccccc3)[C@@H]12 | 2.39 | 245 nM | 
53 | CN1CC[C@]2(C)c3cc(OC(=O)Nc4ccccc4)ccc3NC12 (stereo partly drawn) | 3.75 |  | 
54 | CN1CC[C@]2(C)c3cc(OC(=O)Nc4ccccc4)ccc3N(Cc3ccccc3)C12 (stereo partly drawn) | 4.05 |  | 
55 | Cc1cc(C)cc(NC(=O)Oc2ccc3c(c2)[C@]2(C)CCN(C)[C@@H]2N3C)c1 | 1.89 |  | 
56 | CNC(=O)Oc1ccc2c(c1)[C@]1(C)CCN(C)C1N2Cc1ccccc1 (stereo partly drawn) | 2.21 |  | 
57 | Cc1ccccc1NC(=O)Oc1ccc2c(c1)[C@]1(C)CCN(C)C1N2Cc1ccccc1 (stereo partly drawn) | 2 |  | 
58 | Cc1ccc(C)c(NC(=O)Oc2ccc3c(c2)[C@]2(C)CCN(C)[C@@H]2N3C)c1 | 1.42 |  | 
